Experimental findings from publication PMC8563752, “An oxidative metabolic pathway of 4-deoxy-L-erythro-5-hexoseulose uronic acid (DEHU) from alginate in an alginate-assimilating bacterium” (Communications Biology, 2021) are described below.

In experiment [1] the test system is T1, recFlRed.
T1 construct: gene FlRed; native 27 kDa on SDS-PAGE, about 102 kDa on gel filtration, tetramer
The experiment can be described thus: NADH consumption by absorbance at […] nm, Michaelis-Menten fit. It is filed as biochemical, Flavobacterium sp. UMI-01. To be noted: reductase direction; 0.2 mM NADH, 0.15 M KCl, 10 mM sodium phosphate pH 7.4, 20 °C.

Another experiment has as its target T2, recFlDet (Flavobacterium sp. UMI-01, UniProt A0A6S6B272).
T2 construct: full length 237 residues (25,697 Da), C-terminal His-tag (27,394 Da), E. coli BL21(DE3); native tetra- or pentamer; N-terminus […]
T2 sequence (A0A6S6B272 1-237): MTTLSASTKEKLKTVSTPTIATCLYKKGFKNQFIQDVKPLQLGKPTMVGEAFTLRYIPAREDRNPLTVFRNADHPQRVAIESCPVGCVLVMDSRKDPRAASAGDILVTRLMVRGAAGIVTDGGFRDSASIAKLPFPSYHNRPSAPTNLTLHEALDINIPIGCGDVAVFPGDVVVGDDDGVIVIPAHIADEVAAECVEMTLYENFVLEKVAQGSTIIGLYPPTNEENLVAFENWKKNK
In words: TBA method (decrease at […] nm), TLC, ESI-MS of product. Type of experiment: biochemical. As to conditions: […] potassium phosphate pH […] KCl, […] MgCl2, […] °C.

For experiment [2], the system named is T1, recFlRed. The experiment can be described thus: coenzyme consumption by absorbance at […] nm, Michaelis-Menten fit. Type of experiment: biochemical, Flavobacterium sp. UMI-01. As to conditions: reductase direction; 5 mM DEHU, 0.15 M KCl, 10 mM sodium phosphate pH 7.4, 20 °C.
The test system of experiment [3] is T1, recFlRed. The experiment can be described thus: NADPH formation by absorbance at […] nm, Michaelis-Menten fit. It is filed as biochemical, Flavobacterium sp. UMI-01. To be noted: oxidase direction; 5 mM DEHU, 0.15 M KCl, 10 mM sodium phosphate pH 7.4, 20 °C.
In experiment [4] the target is T3, recFlDeg (Flavobacterium sp. UMI-01, UniProt A0A6S6ASF6).
T3 construct: full length, His-tag, E. coli BL21(DE3); calculated mass 57,142 Da; Glu251 and Cys288 conserved
T3 sequence (A0A6S6ASF6 1-515): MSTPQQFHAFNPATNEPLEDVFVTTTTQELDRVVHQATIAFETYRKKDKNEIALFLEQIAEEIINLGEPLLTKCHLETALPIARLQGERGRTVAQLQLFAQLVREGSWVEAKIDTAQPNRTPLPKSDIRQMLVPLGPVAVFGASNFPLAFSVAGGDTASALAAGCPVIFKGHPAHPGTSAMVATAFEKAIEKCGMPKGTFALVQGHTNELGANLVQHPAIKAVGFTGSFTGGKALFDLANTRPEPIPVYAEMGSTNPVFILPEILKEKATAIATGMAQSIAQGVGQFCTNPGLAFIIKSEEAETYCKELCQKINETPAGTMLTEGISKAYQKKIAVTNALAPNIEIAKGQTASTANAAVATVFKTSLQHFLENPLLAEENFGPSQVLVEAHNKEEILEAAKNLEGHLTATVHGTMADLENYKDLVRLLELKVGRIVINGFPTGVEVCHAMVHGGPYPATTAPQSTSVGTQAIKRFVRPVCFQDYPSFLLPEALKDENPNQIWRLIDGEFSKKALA
The experiment can be described thus: NADH formation at […] nm. Type of experiment: biochemical. To be noted: […] alpha-KGSA, […] potassium phosphate pH […] KCl, […] MgCl2, […] °C.

The test system of experiment [5] is T1, recFlRed. The experiment can be described thus: NADH formation by absorbance at […] nm, Michaelis-Menten fit. To be noted: oxidase direction; 5 mM DEHU, 0.15 M KCl, 10 mM sodium phosphate pH 7.4, 20 °C. Type of experiment: biochemical, Flavobacterium sp. UMI-01.
The target of experiment [6] is T3, recFlDeg. In words: NADH formation at […] nm; TLC, ESI-MS and NMR of product. It is filed as biochemical. As to conditions: NAD+, […] potassium phosphate pH […] KCl, […] MgCl2, […] °C.

As usually defined, the Km is the substrate concentration at which the rate is half of its maximum. For `O=C[C@@H](O)[C@@H](O)CC(=O)C(=O)O` [DEHU], in the experiment on recFlRed [1], the Michaelis constant (Km) came to 2600 ± 100 µM. For `O=C(O)C(=O)C[C@H](O)[C@H](O)C(=O)O` [KDGR], the “TBA method (decrease at 548 nm), TLC, ESI-MS of product” value at recFlDet is listed as “KDGR was determined to be the sole α-keto acid recognized by recFlDet”. On to `NC(=O)C1=CN([C@@H]2O[C@H](COP(=O)(O)OP(=O)(O)OC[C@H]3O[C@@H](n4cnc5c(N)ncnc54)[C@H](O)[C@@H]3O)[C@@H](O)[C@H]2O)C=CC1` [NADH], for which the Km in the experiment with recFlRed [2] worked out at 37 ± 2 µM.

Take `NC(=O)C1=CN([C@@H]2O[C@H](COP(=O)(O)OP(=O)(O)OC[C@H]3O[C@@H](n4cnc5c(N)ncnc54)[C@H](OP(=O)(O)O)[C@@H]3O)[C@@H](O)[C@H]2O)C=CC1` [NADPH]: the Michaelis constant (Km) with recFlRed [2] worked out at 980 ± 100 µM. Turning to `NC(=O)c1ccc[n+]([C@@H]2O[C@H](COP(=O)(O)OP(=O)(O)OC[C@H]3O[C@@H](n4cnc5c(N)ncnc54)[C@H](OP(=O)(O)O)[C@@H]3O)[C@@H](O)[C@H]2O)c1` [NADP^+], the Michaelis constant (Km) in the experiment on recFlRed [3] came to 1400 ± 200 µM. Consider `NC(=O)c1ccc[n+]([C@@H]2O[C@H](COP(=O)(O)OP(=O)(O)OC[C@H]3O[C@@H](n4cnc5c(N)ncnc54)[C@H](O)[C@@H]3O)[C@@H](O)[C@H]2O)c1` [NAD^+], for which, on recFlDeg [4], the “NADH formation at 340 nm” value was “recFlDeg preferred NAD^+ to NADP^+”. In addition, the Km in the experiment on recFlRed [5] worked out at 98 ± 10 µM.

Regarding `O=CCCC(=O)C(=O)O` [α-KGSA], at recFlDeg [6], the “NADH formation at 340 nm; TLC, ESI-MS and NMR of product” value is given as “FlDeg is the enzyme catalyzing the oxidation of the aldehyde group of α-KGSA”.
